Converted amounts (≈) assume the structure as drawn. Like-named read-outs stand apart in the source and are kept apart here. Positions of bridges follow the written chain, without caps; N, C: chain ends. Non-standard residues stand in square brackets, D forms with d. Residues, ends and D or L forms follow the SMILES beside them. *: point of attachment. Octanoyl(3-OH) = CCCCCC(O)CC(=O)*; X1 = CC[C@H](C)CCCCC(=O)*; dDab = NCC[C@@H](N)C(=O)O; Octanoyl = CCCCCCCC(=O)*; Dab = NCC[C@H](N)C(=O)O
Experiments:
[1] = tested on: A. baumannii SM1536 (pMQ124xlab1-mcr-1); test: MIC, microbial susceptibility assay; type: cell-based, Acinetobacter baumannii; conditions: for Fold increase in MIC: A. baumannii SM1536 upon introduction of mcr-1; for MIC: A. baumannii SM1536 (pMQ124xlab1-mcr-1), n=2
[2] = tested on: A. baumannii 0301 (mcr-1); test: MIC, microbial susceptibility assay; type: cell-based, Acinetobacter baumannii; conditions: for Fold increase in MIC: A. baumannii 0301 upon introduction of mcr-1
[3] = tested on: S. typhimurium 0635 (mcr-1); test: MIC, microbial susceptibility assay; type: cell-based; conditions: S. typhimurium 0635, mcr-1 clinical isolate; n=2
[4] = tested on: E. cloacae ATCC13047 (ΔphoP/Q); conditions: n=2
HT29 cells = test: MTT cytotoxicity assay; type: cell-based, human; conditions: 48 h incubation
M. osloensis 10973 = conditions: eptA intrinsic resistance
A. baumannii ATCC17978 [5] = test: CHIR-090 inhibition assay, growth curves; type: cell-based, Acinetobacter baumannii
E. faecium Com15 = test: MIC, microbial susceptibility assay; type: cell-based; conditions: n=2
[6] = tested on: K. pneumoniae 0497 (mcr-1); conditions: n=2
N. meningitidis 13090 = conditions: eptA intrinsic resistance
[7] = Pharmacokinetics assessment, plasma; type: in vivo; conditions: mice, single subcutaneous dose 10 mg/kg
[8] = tested on: A. baumannii ATCC17978 (pMQ124xlab1-mcr-1); test: MIC, microbial susceptibility assay; type: cell-based, Acinetobacter baumannii; conditions: n=2
A. baumannii 0282 = test: MIC, microbial susceptibility assay; type: cell-based, Acinetobacter baumannii; conditions: XDR A. baumannii 0282, mcr-1 −
A. baumannii ATCC17978 [9] = test: MIC, microbial susceptibility assay; type: cell-based, Acinetobacter baumannii; conditions: n=2
E. cloacae 0150 = test: MIC, microbial susceptibility assay; type: cell-based, Enterobacter cloacae; conditions: n=2
K. pneumoniae ATCC13883 = conditions: n=2
A. baumannii 0301 = conditions: lipid analog table
A. baumannii 0286 = test: MIC, microbial susceptibility assay; type: cell-based, Acinetobacter baumannii; conditions: XDR A. baumannii 0286, mcr-1 −
K. pneumoniae 10031 = conditions: n=2
A. baumannii 0296 = test: MIC, microbial susceptibility assay; type: cell-based, Acinetobacter baumannii; conditions: XDR A. baumannii 0296, mcr-1 −
[10] = tested on: pairs of colistin sensitive and resistant strains of K. pneumoniae and A. baumannii (mcr-1 plasmid); type: cell-based
P. aeruginosa PA01 = test: MIC, microbial susceptibility assay; type: cell-based, Pseudomonas aeruginosa; conditions: n=2
[11] = tested on: A. baumannii-SM1536-mcr-1; test: Neutropenic thigh infection model; type: in vivo, Acinetobacter baumannii; conditions: neutropenic mice, 20 mg/kg subcutaneous, 24 h
[12] = tested on: K. pneumoniae ATCC13883 (pMQ124-mcr-1); conditions: for Fold increase in MIC: K. pneumoniae 13883 upon introduction of mcr-1; for MIC: n=2
A. baumannii-0301-mcr-1 = test: Neutropenic thigh infection model; type: in vivo, Acinetobacter baumannii; conditions: neutropenic mice, 20 mg/kg subcutaneous, 24 h
A. baumannii 0295 = test: MIC, microbial susceptibility assay; type: cell-based, Acinetobacter baumannii; conditions: XDR A. baumannii 0295, mcr-1 −
[13] = tested on: A. baumannii 0287 (mcr-1 +); test: MIC, microbial susceptibility assay; type: cell-based, Acinetobacter baumannii; conditions: XDR A. baumannii 0287, mcr-1 +
P. vulgaris 49132 = conditions: Proteus vulgaris, intrinsically colistin resistant (L-Ara4N)
S. aureus SH1000 = test: MIC, microbial susceptibility assay; type: cell-based; conditions: n=2
[14] = tested on: E. cloacae ATCC13047 (ΔphoP/Q+phoP/Q); conditions: for MIC: n=2; for Fold increase in MIC: E. cloacae ATCC13047 upon introduction of phoP/Q; for susceptibility of strain: E. cloacae phoP/Q deletion rescued with phoP/Q plasmid
A. baumannii 0287 = test: MIC, microbial susceptibility assay; type: cell-based, Acinetobacter baumannii; conditions: XDR A. baumannii 0287, mcr-1 −
[15] = tested on: A. baumannii 0295 (mcr-1 +); test: MIC, microbial susceptibility assay; type: cell-based, Acinetobacter baumannii; conditions: XDR A. baumannii 0295, mcr-1 +
[16] = K. pneumoniae 0497, mcr-1 clinical isolate
[17] = A. baumannii 17978, ESKAPE panel
[18] = A. baumannii ATCC17978, mcr-1 engineered pairs
[19] = K. pneumoniae ATCC13883 (pMQ124-mcr-1)
[20] = E. cloacae ATCC13047 (ΔphoP/Q+phoP/Q)

Molecule: CCCCCCCC(=O)N[C@@H](CCN)C(=O)N[C@H](C(=O)N[C@H](CO)C(=O)N[C@H]1CCNC(=O)[C@H](CC(C)C)NC(=O)[C@H](CCN)NC(=O)[C@H](CCN)NC(=O)[C@H]([C@@H](C)CC)NC(=O)[C@@H](CC(C)C)NC(=O)[C@H](CCN)NC1=O)[C@@H](C)O [L2] (Octanoyl-[Dab]T[dS][Dab][Dab][dL]I[Dab][Dab]L; lactam 4-C; N-terminus assumed)
- Fold increase in MIC [1]: 8
- Fold increase in MIC [2]: 2

Molecule: colistin
- MIC [3]: 16 µg/mL
- MIC ([4]; E. cloacae ATCC13047 (ΔphoP/Q)): 1 µg/mL
- cytotoxicity to human cells, IC50 (HT29 cells): > 512 µg/mL
- MIC (M. osloensis 10973): 8 µg/mL
- A. baumannii growth with antibiotic plus CHIR-090 (A. baumannii ATCC17978 [5]; antibiotic at 10x MIC with LpxC inhibitor CHIR-090, 48 h): rescued A. baumannii growth
- A. baumannii growth with antibiotic alone (A. baumannii ATCC17978 [5]; concentrations above MIC (10x MIC), 48 h): completely abrogated A. baumannii growth
- MIC (E. faecium Com15): >128 µg/mL
- MIC [6, 16]: 32 µg/mL
- MIC (N. meningitidis 13090): 128 µg/mL
- plasma drug exposure (pharmacokinetic profile) [7]: parity in plasma drug exposure
- MIC [8]: 32 µg/mL
- MIC (A. baumannii 0282): 0.5 µg/mL
- MIC (A. baumannii ATCC17978 [9]; [17]): 1 µg/mL
- MIC (A. baumannii ATCC17978 [9]; [18]): 1 µg/mL
- MIC (N. gonorrhoeae 49226): >128 µg/mL
- MIC [1]: 128 µg/mL
- Fold increase in MIC [1]: 256
- MIC (E. cloacae 0150): 1 µg/mL
- MIC (A. baumannii SM1536; lipid analog table): 0.5 µg/mL
- MIC (A. baumannii SM1536; n=2): 0.5 µg/mL
- MIC (K. pneumoniae ATCC13883): 1 µg/mL
- MIC (A. baumannii 0301): 0.25 µg/mL
- MIC (A. baumannii 0286): 1 µg/mL
- MIC (K. pneumoniae 10031): 0.5 µg/mL
- MIC (A. baumannii 0296): 0.25 µg/mL
- increase in MIC upon mcr-1 expression [10]: ≥ 32 fold
- MIC (P. aeruginosa PA01): 1 µg/mL
- bacterial burden in thigh relative to initial infection [11]: did not reduce the bacterial burden below the level of the initial infection
- Fold increase in MIC [12]: 64
- MIC [12, 19]: 64 µg/mL
- bacterial burden in thigh relative to initial infection (A. baumannii-0301-mcr-1): did not reduce the bacterial burden below the level of the initial infection
- MIC (A. baumannii 0295): 0.25 µg/mL
- MIC [13]: 64 µg/mL
- MIC (P. vulgaris 49132): > 128 µg/mL
- MIC (S. aureus SH1000): >128 µg/mL
- MIC [14, 20]: 32 µg/mL
- Fold increase in MIC [14]: 32
- susceptibility of strain [14]: resistant
- MIC (A. baumannii 0287): 0.5 µg/mL
- MIC [15]: >128 µg/mL
- MIC ([2]; A. baumannii 0301 (mcr-1), lipid analog table): >128 µg/mL
- Fold increase in MIC [2]: >512
- MIC ([2]; A. baumannii-0301 transformed with mcr-1 (PDR strain)): > 64 µg/mL

Molecule: CCCCCC(O)CC(=O)N[C@@H](CCN)C(=O)N[C@H](C(=O)N[C@H](CO)C(=O)N[C@H]1CCNC(=O)[C@H](CC(C)C)NC(=O)[C@H](CCN)NC(=O)[C@H](CCN)NC(=O)[C@H]([C@@H](C)CC)NC(=O)[C@@H](CC(C)C)NC(=O)[C@H](CCN)NC1=O)[C@@H](C)O (stereo partly drawn) [L5] ({Octanoyl(3-OH)}-[Dab]T[dS][Dab][Dab][dL]I[Dab][Dab]L; lactam 4-C; N-terminus assumed)
- Fold increase in MIC [1]: 4
- Fold increase in MIC [2]: 2

Molecule: CC[C@H](C)CCCCC(=O)N[C@@H](CCN)C(=O)N[C@H](C(=O)N[C@H](CO)C(=O)N[C@H]1CCNC(=O)[C@H]([C@@H](C)O)NC(=O)[C@H](CCN)NC(=O)[C@H](CCN)NC(=O)[C@H]([C@@H](C)CC)NC(=O)[C@@H](CC(C)C)NC(=O)[C@H](CCN)NC1=O)[C@@H](C)O [Macolacin-10Thr] (X1-[Dab]T[dS][Dab][Dab][dL]I[Dab][Dab]T; lactam 4-C)
- MIC ([4]; E. cloacae ATCC13047 (Δ phoP/Q), SAR table): 1 µg/mL (≈ 0.865 µM)
- MIC ([6]; K. pneumoniae 0497 (mcr-1), SAR table): 8 µg/mL (≈ 6.92 µM)
- MIC ([12]; K. pneumoniae 13883 (mcr-1), SAR table): 64 µg/mL (≈ 55.3 µM)
- Fold increase in MIC [12]: 64
- MIC ([14]; E. cloacae ATCC13047 (Δ phoP/Q+phoP/Q), SAR table): 16 µg/mL (≈ 13.8 µM)
- Fold increase in MIC [14]: 16

Molecule: Polymyxin B
- MIC [3]: 16 µg/mL
- MIC ([4]; E. cloacae ATCC13047 (ΔphoP/Q)): 1 µg/mL
- MIC (E. faecium Com15): >128 µg/mL
- MIC [6, 16]: 32 µg/mL
- MIC [8]: 16 µg/mL
- MIC (A. baumannii ATCC17978 [9]; [17]): 0.5 µg/mL
- MIC (A. baumannii ATCC17978 [9]; [18]): 0.5 µg/mL
- MIC [1]: 128 µg/mL
- MIC (E. cloacae 0150): 1 µg/mL
- MIC (A. baumannii SM1536; n=2): 1 µg/mL
- MIC (K. pneumoniae ATCC13883): 1 µg/mL
- MIC (K. pneumoniae 10031): 1 µg/mL
- increase in MIC upon mcr-1 expression [10]: ≥ 32 fold
- MIC (P. aeruginosa PA01): 2 µg/mL
- Fold increase in MIC [12]: 128
- MIC [12, 19]: 128 µg/mL
- MIC (P. vulgaris 49132): > 128 µg/mL
- MIC (S. aureus SH1000): >128 µg/mL
- MIC [14, 20]: 32 µg/mL
- Fold increase in MIC [14]: 32
- susceptibility of strain [14]: resistant

Molecule: CC[C@H](C)CCCCC(=O)N[C@@H](CCN)C(=O)N[C@H](C(=O)N[C@H](CCN)C(=O)N[C@H]1CCNC(=O)[C@H](CC(C)C)NC(=O)[C@H](CCN)NC(=O)[C@H](CCN)NC(=O)[C@H]([C@@H](C)CC)NC(=O)[C@@H](CC(C)C)NC(=O)[C@H](CCN)NC1=O)[C@@H](C)O [Macolacin-3Dab] (X1-[Dab]T[dDab][Dab][Dab][dL]I[Dab][Dab]L; lactam 4-C)
- Fold increase in MIC [12]: 8
- Fold increase in MIC [14]: 4

Molecule: C[C@@H](O)[C@H](NC(=O)c1ccc(C#Cc2ccc(CN3CCOCC3)cc2)cc1)C(=O)NO [CHIR-090]
- A. baumannii growth with CHIR-090 alone (A. baumannii ATCC17978 [5]; 48 h growth curve): does not inhibit A. baumannii growth

— article PMC10321319 (Nature, 2022)
